Source: patent US20080114017A1, “Novel Indolopyridines, Benzofuranopyridines and Benzothienopyridines” (priority 2005, published 2008)

Key:
[1] = test system: RKO human colon adenocarcinoma cells (RKO p27 subclone, uninduced); experiment: Alamar Blue cell viability assay, anti-proliferative/cytotoxic activity, proliferating RKO p27 cells (uninduced); assay type: cell-based; settings: RKOp27, absence of Ponasterone A, 72 hours incubation
Method: The anti-proliferative/cytotoxic activity of the compounds described herein can be tested on subclones of RKO human colon adenocarcinoma cells (Schmidt et al., Oncogene 19, 2423-2429; 2000) using the Alamar Blue cell viability assay (described in O'Brien et al. Eur J Biochem 267, 5421-5426, 2000). The compounds are dissolved as 10 mM solutions in DMSO and subsequently diluted in semi-logarithmic steps. DMSO dilutions are further diluted 1:100 into Dulbecco's modified Eagle's medium (DMEM) containing 10% fetal calf serum to a final concentration twice as much as the final concentration in the test. RKO subclones are seeded into 96 well flat bottom plates at a density of 4000 cells per well in a volume of 50 μl per well. 24 hours after seeding the 50 μl each of the compound dilutions in DMEM medium are added into each well of the 96 well plate. Each compound dilution is tested as quadruplicates. Wells containing untreated control cells are filled with 50 μl DMEM medium containing 1% DMSO. The cells are then incubated with the substances for 72 hours at 37° C. in a humidified atmosphere containing 5% carbon dioxide. To determine the viability of the cells, 10 μl of an Alamar Blue solution (Biosource) are added and the fluorescence is measured at an extinction of 544 nm and an emission of 590 nm. For the calculation of the cell viability the emission value from untreated cells is set as 100% viability and the emission rates of treated cells are set in relation to the values of untreated cells. Viabilities are expressed as % values.
The corresponding IC50 values of the compounds for anti-proliferative/cytotoxic activity are determined from the concentration-effect curves.
(§1) Representative IC50 values for anti-proliferation/cytotoxicity determined in the aforementioned assays follow from the following table A, in which the numbers of the compounds correspond to the numbers of the examples.

[2] = test system: RKO colon adenocarcinoma cells (RKOp27, induced); experiment: Alamar Blue cell viability assay, cell cycle specific mode of action, RKO p27 cells arrested by Ponasterone A induced p27Kip1; assay type: cell-based; settings: Homo sapiens, cells arrested by ectopic p27Kip1 induced with 10 μM Ponasterone A, 72 hours incubation
Method: To determine the cell cycle specific mode of action, subclones of RKO colon adenocarcinoma cells (RKOp27 as described by Schmidt et al. in Oncogene 19, 2423-2429; 2000) are seeded into 96 well flat bottom plates at a density of 16000 cells per well in a volume of 50 μl per well in DMEM growth medium with 10% FCS containing 10 μM Ponasterone A. 24 hours after seeding the 50 μl each of the compound dilutions in DMEM medium are added into each well of the 96-well plate. Each compound dilution is tested as quadruplicates. Wells containing untreated control cells are filled with 50 μl DMEM medium containing 1% DMSO. The cells are then incubated with the substances for 72 hours at 37° C. in a humidified atmosphere containing 5% carbon dioxide. To determine the viability of the cells, 10 μl of an Alamar Blue solution (Biosource) are added and the fluorescence is measured at an extinction of 544 nm and an emission of 590 nm. For the calculation of the cell viability the emission value from untreated cells is set as 100% viability and the emission rates of treated cells are set in relation to the values of untreated cells. Viabilities are expressed as % values. Viability is compared of proliferating cells grown in the absence of the inducer Ponasterone A, versus viability of cells arrested by the expression of ectopic p27Kip1 induced by Ponasterone A.
as §1

| Compound | IC50 [1] [µM] | IC50 [2] [µM] |
| --- | --- | --- |
| COC(=O)c1cccc([C@@H]2c3[nH]c4ccccc4c3C[C@H]3C(=O)N(C)C(=S)N23)c1 (racemic) [Compound 4, 3-((3aSR, 10RS)-2-Methyl-3-oxo-1-thioxo-2,3,3a,4,9,10-hexahydro-1H-2,9,10a-triaza-cyclopenta[b]fluoren-10-yl)-benzoic acid methyl ester] | ≤ 2 | > 100 |
| COC(=O)c1ccc(OC)c([C@@H]2c3[nH]c4ccccc4c3C[C@H]3C(=O)N(C)C(=S)N23)c1 [Compound 7, 4-Methoxy-3-((3aS,10R)-2-methyl-3-oxo-1-thioxo-2,3,3a,4,9,10-hexahydro-1H-2,9,10a-triaza-cyclopenta[b]fluoren-10-yl)-benzoic acid methyl ester] | ≤ 2 | > 100 |
| COC(=O)c1cccc([C@@H]2c3[nH]c4ccccc4c3C[C@H]3C(=O)N(C)C(=S)N23)c1 [Compound 5, 3-((3aS,10R)-2-Methyl-3-oxo-1-thioxo-2,3,3a,4,9,10-hexahydro-1H-2,9,10a-triaza-cyclopenta[b]fluoren-10-yl)-benzoic acid methyl ester] | ≤ 2 | > 100 |
| CN1C(=O)[C@@H]2Cc3c([nH]c4ccccc34)[C@@H](c3cccc(OC(F)(F)F)c3)N2C1=S [Compound 1, (3aS,10R)-2-Methyl-1-thioxo-10-(3-trifluoromethoxy-phenyl)-1,2,3a,4,9,10-hexahydro-2,9,10a-triaza-cyclopenta[b]fluoren-3-one] | ≤ 2 | > 100 |
| COC(=O)c1cc(Cl)cc([C@@H]2c3[nH]c4ccccc4c3C[C@H]3C(=O)N(C)C(=S)N23)c1 [Compound 6, 3-Chloro-5-((3aS,10R)-2-methyl-3-oxo-1-thioxo-2,3,3a,4,9,10-hexahydro-1H-2,9,10a-triaza-cyclopenta[b]fluoren-10-yl)-benzoic acid methyl ester] | ≤ 2 | > 100 |
